Broadly, the IC50 is the concentration needed to halve the response being measured. The low end stands for inhibition by little substance, the high end for a need for much substance.

The target of the assay is T1, human CXCR3 (N-delta 4) (Homo sapiens, UniProt P49682).
T1 construct: CD8 leader; Flag tag; expressed in transfected cells; membranes used
T1 sequence (P49682 5-368 limits assumed): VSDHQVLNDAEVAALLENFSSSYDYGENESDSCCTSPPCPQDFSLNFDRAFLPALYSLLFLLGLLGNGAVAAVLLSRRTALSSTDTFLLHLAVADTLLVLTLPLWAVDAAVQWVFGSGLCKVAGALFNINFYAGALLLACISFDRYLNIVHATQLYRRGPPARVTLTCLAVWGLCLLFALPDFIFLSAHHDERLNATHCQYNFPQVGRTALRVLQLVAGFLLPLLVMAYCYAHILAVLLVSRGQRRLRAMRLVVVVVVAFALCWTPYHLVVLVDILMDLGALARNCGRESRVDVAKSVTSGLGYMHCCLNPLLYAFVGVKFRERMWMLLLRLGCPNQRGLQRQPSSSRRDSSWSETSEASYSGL
The assay is described as follows: Human CXCR3 (N-delta 4) scintillation proximity assay (SPA), [125I] IP-10 binding. The note with it: IC50 rating; Ba/F3-hCXCR3 (N-delta 4) membranes, 25 pM [125I] IP-10. The text has this:
The inventive compounds can readily be evaluated to determine activity at the CXCR3 receptors by known methods, such as, for example, development of a human CXCR3 (N-delta 4) Binding Assay.
Cloning and expression of human CXCR3 (N-delta 4):
The DNA encoding human CXCR3 was cloned by PCR using human genomic DNA (Promega, Madison, Wis.) as a template. The PCR primers were designed based on the published sequence of human orphan receptor GPR9 (1) with incorporated restriction sites, a Kozak consensus sequence, CD8 leader and Flag tag. The PCR product was subcloned into the mammalian expression vector pME18Sneo, a derivative of the SR-alpha expression vector (designated as pME18Sneo-hCXCR3 (N-delta 4).
IL-3-dependent mouse pro-B cells Ba/F3 were transfected by electroporation in 0.4 ml Dulbecco's PBS containing 4×10^6 cells with 20 μg of pME18Sneo-hCXCR3 (N-delta 4) plasmid DNA. Cells were pulsed at 400 Volts, 100 OHMs, 960 μFd. The transfected cells were under selection with 1 mg/ml G418 (Life Technologies, Gaithersburg, Md.). […] IP-10 (NEN Life Science Products, Boston, Mass.).
Preparation of Ba/F3-hCXCR3 (N-delta 4) membranes:
Ba/F3 cells expressing human CXCR3 (N-delta 4) were pelleted and resuspended in the lysis buffer containing 10 mM HEPES, pH 7.5 and Complete® protease inhibitors (1 tablet per 100 ml) (Boehringer Mannheim, Indianapolis, Ind.) at a cell density of 20×10^6 cells per ml. […] Large cellular debris was removed by centrifugation at 1,000×g. Cell membrane in the supernatant was sedimented at 100,000×g. The membrane was resuspended in the lysis buffer supplemented with 10% sucrose and stored at −80° C. Total protein concentration of the membrane was determined by BCA method from Pierce (Rockford, Ill.).
Human CXCR3 (N-delta 4) scintillation proximity assay (SPA):
The beads were spun down, washed once, resuspended in the binding buffer and transferred to a 96-well Isoplate (Wallac, Gaithersburg, Md.). […] IP-10 with tested compounds in a series of titration were added to start the reaction.
On the technique in general: SPA uses beads or plates that emit light when radiolabelled molecules are held near them.
`O=C(NCc1ccc(F)c(Cl)c1)c1cnc(N2CCN(C3CCN(Cc4ccc(F)cc4F)CC3)CC2)c(Cl)c1` [compound 102] came in with an IC50 of 25 to 100 nM. Consider `COc1ccc(CN2CCC(N3CCN(c4ncc(C(=O)NCc5ccc(Cl)cc5)cc4Cl)CC3)CC2)cc1` [compound 103], for which the IC50 lay within 25 to 100 nM. The result for `CC(NC(=O)c1cnc(N2CCN(C3CCN(Cc4ccc(Cl)cc4)CC3)CC2)c(Cl)c1)c1ccccc1` (centres unmarked) [compound 104] reads 25 to 100 nM. `O=C(NCc1ccc(Cl)cc1F)c1cnc(N2CCN(C3CCN(Cc4ccc(Br)cc4)CC3)CC2)c(Cl)c1` [compound 105] had an IC50 of 25 to 100 nM. The result for `O=C(NCc1ccc(F)cc1)c1cnc(N2CCN(C3CCN(Cc4ccc(F)c(F)c4)CC3)CC2)c(Cl)c1` [compound 106] reads 25 to 100 nM; that for `N#Cc1ccc(CN2CCC(N3CCN(c4ncc(C(=O)NCc5ccc(F)c(Cl)c5)cc4Cl)CC3)CC2)cc1` [compound 107], 25 to 100 nM. The figure for `O=C(NCc1ccc(F)c(Cl)c1)c1cnc(N2CCN(C3CCN(Cc4ccc(Br)cc4)CC3)CC2)c(Cl)c1` [compound 108] is 25 to 100 nM; for `O=C(NCc1ccc(Br)cc1)c1cnc(N2CCN(C3CCN(Cc4ccc(F)cc4)CC3)CC2)c(Cl)c1` [compound 109] it is 25 to 100 nM; for `COc1ccc(CN2CCC(N3CCN(c4ncc(C(=O)NCc5ccc(Cl)cc5F)cc4Cl)CC3)CC2)cc1` [compound 111] it is 25 to 100 nM. The result for `O=C(NCCOc1ccccc1)c1cnc(N2CCN(C3CCN(Cc4ccc([N+](=O)[O-])cc4)CC3)CC2)c(Cl)c1` [compound 112] reads 25 to 100 nM; that for `O=C(NCc1ccc(F)cc1)c1cnc(N2CCN(C3CCN(Cc4ccc(Br)cc4)CC3)CC2)c(Cl)c1` [compound 113], 25 to 100 nM; that for `N#Cc1ccc(CN2CCC(N3CCN(c4ncc(C(=O)NCc5ccc(Br)cc5)cc4Cl)CC3)CC2)cc1` [compound 114], 25 to 100 nM. Take `O=C(NCc1ccc(Cl)c(Cl)c1)c1cnc(N2CCN(C3CCN(Cc4ccc(Cl)c(F)c4)CC3)CC2)c(Cl)c1` [compound 115]: the IC50 lay within 25 to 100 nM.

Turning to `COc1ccc(CN2CCC(N3CCN(c4ncc(C(=O)NCc5ccc(F)c(F)c5)cc4Cl)CC3)CC2)cc1` [compound 116], the IC50 was 25 to 100 nM.

Turning to `COc1ccc(CN2CCC(N3CCN(c4ncc(C(=O)NCc5ccc(F)c(Cl)c5)cc4Cl)CC3)CC2)cc1` [compound 117], the IC50 fell in the range of 25 to 100 nM. The figure for `O=C(NCc1cccc(Cl)c1)c1cnc(N2CCN(C3CCN(Cc4ccc(F)c(F)c4)CC3)CC2)c(Cl)c1` [compound 118] is 25 to 100 nM; for `O=C(NCc1ccc(Cl)cc1Cl)c1cnc(N2CCN(C3CCN(Cc4ccc(F)cc4)CC3)CC2)c(Cl)c1` [compound 119] it is 25 to 100 nM.

In turn, `N#Cc1ccc(CN2CCC(N3CCN(c4ncc(C(=O)NCc5ccc(Cl)cc5F)cc4Cl)CC3)CC2)cc1` [compound 120] had an IC50 of 25 to 100 nM. The figure for `O=C(NCc1ccc(F)c(F)c1)c1cnc(N2CCN(C3CCN(Cc4ccc(Cl)c(F)c4)CC3)CC2)c(Cl)c1` [compound 121] is 25 to 100 nM; for `CC1CN(C2CCN(Cc3ccc(Cl)cc3)CC2)CCN1c1ncc(C(=O)NCc2ccc(Cl)c(Cl)c2)cc1Cl` (centres unmarked) [compound 122] it is 25 to 100 nM; for `O=C(NCCOc1ccccc1)c1cnc(N2CCN(C3CCN(Cc4ccc(Cl)c(F)c4)CC3)CC2)c(Cl)c1` [compound 123] it is 25 to 100 nM.

Regarding `COc1ccc(CN2CCC(N3CCN(c4ncc(C(=O)NCc5ccc(Cl)c(Cl)c5)cc4Cl)CC3)CC2)cc1` [compound 124], the IC50 lay in the range of 25 to 100 nM. Compound `O=C(NCc1ccc(Cl)cc1F)c1cnc(N2CCN(C3CCN(Cc4ccc(Cl)cc4)CC3)CC2)c(Cl)c1` [compound 125] had an IC50 of 25 to 100 nM.

Compound `N#Cc1ccc(CN2CCC(N3CCN(c4ncc(C(=O)NCc5ccc(Cl)cc5)cc4Cl)CC3)CC2)cc1` [compound 126] had an IC50 of 25 to 100 nM. As to `O=C(NCc1ccc(F)cc1F)c1cnc(N2CCN(C3CCN(Cc4ccc(Cl)c(F)c4)CC3)CC2)c(Cl)c1` [compound 127], the IC50 is 25 to 100 nM. Regarding `O=C(NCc1ccc(F)cc1F)c1cnc(N2CCN(C3CCN(Cc4ccc([N+](=O)[O-])cc4)CC3)CC2)c(Cl)c1` [compound 128], the IC50 lay in the range of 25 to 100 nM. The figure for `N#Cc1ccc(CN2CCC(N3CCN(c4ncc(C(=O)NCc5ccc(F)c(F)c5)cc4Cl)CC3)CC2)cc1` [compound 129] is 25 to 100 nM. `CC1CN(C2CCN(Cc3ccc(Cl)cc3)CC2)CCN1c1ncc(C(=O)NCCOc2ccccc2)cc1Cl` (centres unmarked) [compound 130] yielded an IC50 of 25 to 100 nM. The figure for `O=C(NCc1ccc(Br)cc1)c1cnc(N2CCN(C3CCN(Cc4ccc([N+](=O)[O-])cc4)CC3)CC2)c(Cl)c1` [compound 131] is 25 to 100 nM; for `O=C(NCc1ccc(F)cc1F)c1cnc(N2CCN(C3CCN(Cc4ccc(F)c(F)c4)CC3)CC2)c(Cl)c1` [compound 132] it is 25 to 100 nM.

`O=C(NCc1ccc(Cl)cc1Cl)c1cnc(N2CCN(C3CCN(Cc4ccc(Cl)c(F)c4)CC3)CC2)c(Cl)c1` [compound 133]: the IC50 was 25 to 100 nM. Regarding `O=C(NCc1ccc(Cl)cc1F)c1cnc(N2CCN(C3CCN(Cc4ccc(F)cc4)CC3)CC2)c(Cl)c1` [compound 134], the IC50 lay in the range of 25 to 100 nM.

For `O=C(NCc1ccc(Cl)c(Cl)c1)c1cnc(N2CCN(C3CCN(Cc4ccc(F)cc4)CC3)CC2)c(Cl)c1` [compound 135], the IC50 lay in the range of 25 to 100 nM.

Regarding `O=C(NCc1ccc(Br)cc1)c1cnc(N2CCN(C3CCN(Cc4ccc(Cl)cc4)CC3)CC2)c(Cl)c1` [compound 136], the IC50 lay in the range of 25 to 100 nM. Take `COc1ccc(CN2CCC(N3CCN(c4ncc(C(=O)NCc5ccc(Br)cc5)cc4Cl)CC3)CC2)cc1` [compound 137]: the IC50 was in the range of 25 to 100 nM. The result for `CNC(=O)c1cnc(N2CCN(C3CCN(Cc4ccc(Cl)cc4)CC3)CC2C)c(Cl)c1` (centres unmarked) [compound 138] reads 25 to 100 nM. The figure for `O=C(NCc1ccc(F)cc1)c1cnc(N2CCN(C3CCN(Cc4ccc(Cl)c(F)c4)CC3)CC2)c(Cl)c1` [compound 139] is 25 to 100 nM; for `O=C(NCc1ccc(Cl)cc1F)c1cnc(N2CCN(C3CCN(Cc4ccc(F)c(F)c4)CC3)CC2)c(Cl)c1` [compound 140] it is 25 to 100 nM. For the compound `O=C(NCc1ccc(Cl)cc1Cl)c1cnc(N2CCN(C3CCN(Cc4ccc(F)c(F)c4)CC3)CC2)c(Cl)c1` [compound 141], the IC50 fell in the range of 25 to 100 nM. Turning to `O=C(NCc1ccc(Cl)cc1Cl)c1cnc(N2CCN(C3CCN(Cc4ccc([N+](=O)[O-])cc4)CC3)CC2)c(Cl)c1` [compound 142], the IC50 was 25 to 100 nM. The compound `CC1CC(N2CCN(c3ncc(C(=O)NCc4ccc(Cl)c(Cl)c4)cc3Cl)CC2)CCN1Cc1ccc(C#N)cc1` (centres unmarked) [compound 143] yielded an IC50 of 25 to 100 nM.

Take `O=C(NCc1ccc(F)c(Cl)c1)c1cnc(N2CCN(C3CCN(Cc4ccc(F)cc4)CC3)CC2)c(Cl)c1` [compound 144]: the IC50 is 25 to 100 nM. The figure for `N#Cc1ccc(CN2CCC(N3CCN(c4ncc(C(=O)NCc5ccc(Cl)c(Cl)c5)cc4Br)CC3)CC2)cc1` [compound 145] is 25 to 100 nM; for `CC[C@H]1CN(c2ncc(C(N)=O)cc2Cl)CCN1C1CCN(C(=O)c2ccc(Cl)cc2N2CCOC2=O)CC1` [compound 146] it is 25 to 100 nM.

The compound `O=C(NCc1ccc(Cl)c(Cl)c1)c1cnc(N2CCN(C3CCN(Cc4ccc(F)c(F)c4)CC3)CC2)c(Cl)c1` [compound 147] had an IC50 of 25 to 100 nM. The compound `O=C(NCc1cccc(Cl)c1)c1cnc(N2CCN(C3CCN(Cc4ccc([N+](=O)[O-])cc4)CC3)CC2)c(Cl)c1` [compound 148] registered an IC50 of 25 to 100 nM.

Compound `O=C(NCc1ccc(Cl)cc1Cl)c1cnc(N2CCN(C3CCN(Cc4ccc(Cl)cc4)CC3)CC2)c(Cl)c1` [compound 149] returned an IC50 of 25 to 100 nM.

Regarding `O=C(NCc1ccc(F)c(Cl)c1)c1cnc(N2CCN(C3CCN(Cc4ccc(Cl)cc4)CC3)CC2)c(Cl)c1` [compound 150], the IC50 lay in the range of 25 to 100 nM. As for `O=C(NCc1ccc(Cl)cc1)c1cnc(N2CCN(C3CCN(Cc4ccc(F)cc4)CC3)CC2)c(Cl)c1` [compound 151], the IC50 is 25 to 100 nM.

`C[C@@H]1CN(c2ncc(C(=O)NCc3ccc(F)c(F)c3)cc2Cl)CCN1C1CCN(Cc2ccc(Cl)cc2)CC1` [compound 152] came in with an IC50 of 25 to 100 nM.

For the origin of these results see patent US7776862B2, “Pyridyl and phenyl substituted piperazine-piperidines with CXCR3 antagonist activity” (Schering Corporation, priority 2005, dated 2010).
